Measurements reported in patent US20250215029A1 (Recludix Pharma, Inc., priority 2022, published 2025).

Tests used:
[1] = molecular target: T1, Recombinant STAT3 protein (STAT3 (G127-I722)) (Homo sapiens, UniProt P40763); experiment: STAT3 Fluorescence Polarization (FP) Assay; type: binding; settings: STAT3 (G127-I722) 25 nM, probe 5-FAM-GpYLPQTV-NH2 2 nM, 45-minute incubation; read-out: STAT3 (FP assay IC50 class)
T1 construct: Recombinant STAT3 protein (STAT3 (G127-I722))
Summary of the method: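 Read-out is fluorescence polarization (mP) after 45 min at room temperature, with IC50 fitted by nonlinear regression against log compound concentration. Mixture: 25 nM STAT3 (G127-I722), 2 nM 5-FAM-GpYLPQTV-NH2 phosphopeptide, 10 mM HEPES pH 7.4 buffer, 1% DMSO.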

[2] = molecular target: T2, Recombinant STAT6 protein (STAT6 (W123-T658)) (Homo sapiens, UniProt P42226); experiment: STAT6 Fluorescence Polarization (FP) Assay; type: binding; settings: STAT6 (W123-T658) 250 nM, probe 5-FAM-Ap[…]-NH2 2 nM, 45-minute incubation; read-out: STAT6 (FP assay IC50 class)
T2 construct: Recombinant STAT6 protein (STAT6 (W123-T658))
T2 sequence (P42226 123-658): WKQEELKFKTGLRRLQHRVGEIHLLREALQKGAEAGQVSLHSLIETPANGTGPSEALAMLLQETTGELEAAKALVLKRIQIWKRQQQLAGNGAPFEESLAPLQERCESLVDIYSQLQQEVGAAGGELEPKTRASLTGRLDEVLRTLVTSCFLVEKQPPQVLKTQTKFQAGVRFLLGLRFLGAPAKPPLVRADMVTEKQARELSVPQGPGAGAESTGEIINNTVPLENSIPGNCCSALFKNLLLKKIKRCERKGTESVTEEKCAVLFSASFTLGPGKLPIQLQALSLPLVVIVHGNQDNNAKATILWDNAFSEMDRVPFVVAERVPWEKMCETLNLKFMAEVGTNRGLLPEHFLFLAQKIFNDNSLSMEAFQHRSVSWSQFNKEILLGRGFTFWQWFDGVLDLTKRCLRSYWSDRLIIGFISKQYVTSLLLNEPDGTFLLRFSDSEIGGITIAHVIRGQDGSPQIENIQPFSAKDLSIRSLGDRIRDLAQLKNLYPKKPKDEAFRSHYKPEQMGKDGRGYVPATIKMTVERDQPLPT
Summary of the method: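 Probe displacement format: serially diluted compounds incubated 45 min at room temperature with 2 nM fluorescent phosphopeptide and 250 nM STAT6 (W123-T658) in pH 7.4 HEPES buffer, 1% DMSO final. Polarization signal plotted against log concentration, IC50 fitted by nonlinear regression.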

T1 sequence (P40763 127-722): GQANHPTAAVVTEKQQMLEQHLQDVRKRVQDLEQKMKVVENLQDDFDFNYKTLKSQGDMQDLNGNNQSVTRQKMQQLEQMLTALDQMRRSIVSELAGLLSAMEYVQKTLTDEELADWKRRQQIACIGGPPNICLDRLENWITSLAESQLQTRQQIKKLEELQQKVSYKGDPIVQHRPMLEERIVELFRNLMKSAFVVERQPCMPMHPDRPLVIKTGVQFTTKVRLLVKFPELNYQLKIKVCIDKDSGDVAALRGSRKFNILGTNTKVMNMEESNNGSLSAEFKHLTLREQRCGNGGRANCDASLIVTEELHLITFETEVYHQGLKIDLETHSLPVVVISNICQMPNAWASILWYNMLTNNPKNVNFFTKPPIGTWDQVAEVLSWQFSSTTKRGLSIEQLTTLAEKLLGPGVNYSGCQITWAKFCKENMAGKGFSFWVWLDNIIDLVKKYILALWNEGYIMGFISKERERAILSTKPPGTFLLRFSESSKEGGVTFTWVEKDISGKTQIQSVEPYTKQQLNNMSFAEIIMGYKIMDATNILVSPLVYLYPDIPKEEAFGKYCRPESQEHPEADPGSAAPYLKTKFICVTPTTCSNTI

IC50 [1] | IC50 [2] | SMILES
1000 to 10000 nM | 0.3 to 3 µM | O=C(N[C@H]1CCCC[C@H]2CC[C@@H](C(=O)N3C(=O)N(c4ccn(C(F)F)c(=O)c4)C(=O)C34CC4)N2C1=O)c1cc2cc(C(F)P(=O)(O)O)ccc2s1 (stereo partly drawn) [Compound 572, ((2-(((3S,6S,10aS)-3-(6-(1-(difluoromethyl)-2-oxo-1,2-dihydropyridin-4-yl)-5,7-dioxo-4,6-diazaspiro[2.4]heptane-4-carbonyl)-5-oxodecahydropyrrolo[1,2-a]azocin-6-yl)carbamoyl)benzo[b]thiophen-5-yl)fluoromethyl)phosphonic acid]
100 to 1000 nM | 3 to 30 µM | O=C(N[C@H]1CCCC[C@H]2CC[C@@H](C(=O)N3CC(N4CCS(=O)(=O)CC4)C3)N2C1=O)c1cc2cc(C(F)P(=O)(O)O)ccc2s1 (stereo partly drawn) [Compound 573, ((2-(((3S,6S,10aS)-3-(3-(1,1-dioxidothiomorpholino)azetidine-1-carbonyl)-5-oxodecahydropyrrolo[1,2-a]azocin-6-yl)carbamoyl)benzo[b]thiophen-5-yl)fluoromethyl)phosphonic acid]
1000 to 10000 nM | 3 to 30 µM | O=C(N[C@H]1CCC[C@H]2CC[C@@H](C(=O)N3CC(c4cccnc4)C3)N2C1=O)c1cc2cc(CP(=O)(O)O)ncc2s1 [Compound 574, ((2-(((3S,6S,9aS)-5-oxo-3-(3-(pyridin-3-yl)azetidine-1-carbonyl)octahydro-1H-pyrrolo[1,2-a]azepin-6-yl)carbamoyl)thieno[2,3-c]pyridin-5-yl)methyl)phosphonic acid]
1000 to 10000 nM | 3 to 30 µM | CCc1ccncc1C1CN(C(=O)[C@@H]2CC[C@@H]3CCC[C@H](NC(=O)c4cn5cc(CP(=O)(O)O)ccc5n4)C(=O)N32)C1 [Compound 575, ((2-(((3S,6S,9aS)-3-(3-(4-ethylpyridin-3-yl)azetidine-1-carbonyl)-5-oxooctahydro-1H-pyrrolo[1,2-a]azepin-6-yl)carbamoyl)imidazo[1,2-a]pyridin-6-yl)methyl)phosphonic acid]
100 to 1000 nM | 3 to 30 µM | CCc1ccncc1C1CN(C(=O)[C@@H]2CC[C@@H]3CCC[C@H](NC(=O)c4ccc5sc(CP(=O)(O)O)cc5c4)C(=O)N32)C1 [Compound 576, ((5-(((3S,6S,9aS)-3-(3-(4-ethylpyridin-3-yl)azetidine-1-carbonyl)-5-oxooctahydro-1H-pyrrolo[1,2-a]azepin-6-yl)carbamoyl)benzo[b]thiophen-2-yl)methyl)phosphonic acid]
1000 to 10000 nM | 3 to 30 µM | COc1cc(F)ncc1C1CN(C(=O)[C@@H]2CC[C@@H]3CCC[C@H](NC(=O)c4cc5cc(CP(=O)(O)O)ccc5s4)C(=O)N32)C1 [Compound 577, ((2-(((3S,6S,9aS)-3-(3-(6-fluoro-4-methoxypyridin-3-yl)azetidine-1-carbonyl)-5-oxooctahydro-1H-pyrrolo[1,2-a]azepin-6-yl)carbamoyl)benzo[b]thiophen-5-yl)methyl)phosphonic acid]
1000 to 10000 nM | 3 to 30 µM | COc1ccnc(F)c1C1CN(C(=O)[C@@H]2CC[C@@H]3CCC[C@H](NC(=O)c4cc5cc(CP(=O)(O)O)ccc5s4)C(=O)N32)C1 [Compound 578, ((2-(((3S,6S,9aS)-3-(3-(2-fluoro-4-methoxypyridin-3-yl)azetidine-1-carbonyl)-5-oxooctahydro-1H-pyrrolo[1,2-a]azepin-6-yl)carbamoyl)benzo[b]thiophen-5-yl)methyl)phosphonic acid]
100 to 1000 nM | 3 to 30 µM | O=C(N[C@H]1CCCC[C@H]2CC[C@@H](C(=O)N3CCC(c4ccccn4)CC3)N2C1=O)c1cc2cc(C(F)P(=O)(O)O)ccc2s1 (stereo partly drawn) [Compound 579, (fluoro(2-(((3S,6S,10aS)-5-oxo-3-(4-(pyridin-2-yl)piperidine-1-carbonyl)decahydropyrrolo[1,2-a]azocin-6-yl)carbamoyl)benzo[b]thiophen-5-yl)methyl)phosphonic acid]
1000 to 10000 nM | 3 to 30 µM | Cc1nccc(F)c1C1CN(C(=O)[C@@H]2CC[C@@H]3CCC[C@H](NC(=O)c4cc5cc(CP(=O)(O)O)ccc5s4)C(=O)N32)C1 [Compound 580, ((2-(((3S,6S,9aS)-3-(3-(4-fluoro-2-methylpyridin-3-yl)azetidine-1-carbonyl)-5-oxooctahydro-1H-pyrrolo[1,2-a]azepin-6-yl)carbamoyl)benzo[b]thiophen-5-yl)methyl)phosphonic acid]
1000 to 10000 nM | 0.3 to 3 µM | Cn1cc(F)c(N2C(=O)N(C(=O)[C@@H]3CC[C@@H]4CCCC[C@H](NC(=O)c5cc6cc(C(F)P(=O)(O)O)ccc6s5)C(=O)N43)C3(CC3)C2=O)cc1=O (stereo partly drawn) [Compound 581, (fluoro(2-(((3S,6S,10aS)-3-(6-(5-fluoro-1-methyl-2-oxo-1,2-dihydropyridin-4-yl)-5,7-dioxo-4,6-diazaspiro[2.4]heptane-4-carbonyl)-5-oxodecahydropyrrolo[1,2-a]azocin-6-yl)carbamoyl)benzo[b]thiophen-5-yl)methyl)phosphonic acid]
1000 to 10000 nM | 3 to 30 µM | O=C(N[C@H]1CCC[C@H]2CC[C@@H](C(=O)N3CCC(c4ncncc4F)CC3)N2C1=O)c1cc2cc(C(F)P(=O)(O)O)ccc2s1 (stereo partly drawn) [Compound 582, (fluoro(2-(((3S,6S,9aS)-3-(4-(5-fluoropyrimidin-4-yl)piperidine-1-carbonyl)-5-oxooctahydro-1H-pyrrolo[1,2-a]azepin-6-yl)carbamoyl)benzo[b]thiophen-5-yl)methyl)phosphonic acid]
100 to 1000 nM | 3 to 30 µM | O=C(N[C@H]1CCC[C@H]2CC[C@@H](C(=O)N3CC(c4ncncc4F)C3)N2C1=O)c1cc2cc(C(F)P(=O)(O)O)ccc2s1 (stereo partly drawn) [Compound 583, (fluoro(2-(((3S,6S,9aS)-3-(3-(5-fluoropyrimidin-4-yl)azetidine-1-carbonyl)-5-oxooctahydro-1H-pyrrolo[1,2-a]azepin-6-yl)carbamoyl)benzo[b]thiophen-5-yl)methyl)phosphonic acid]
1000 to 10000 nM | 3 to 30 µM | Cn1ccc(=O)c(C2CN(C(=O)[C@@H]3CC[C@@H]4CCC[C@H](NC(=O)c5cc6cc(CP(=O)(O)O)ccc6s5)C(=O)N43)C2)c1 [Compound 584, ((2-(((3S,6S,9aS)-3-(3-(1-methyl-4-oxo-1,4-dihydropyridin-3-yl)azetidine-1-carbonyl)-5-oxooctahydro-1H-pyrrolo[1,2-a]azepin-6-yl)carbamoyl)benzo[b]thiophen-5-yl)methyl)phosphonic acid]
< 100 nM | 3 to 30 µM | C[C@H]1CC[C@H](NC(=O)c2cc3cc(CP(=O)(O)O)ccc3s2)C(=O)N2[C@H](CC[C@H]2C(=O)N2CC(c3cnccc3F)C2)C1 [Compound 585, ((2-(((3S,6S,9S,10aR)-3-(3-(4-fluoropyridin-3-yl)azetidine-1-carbonyl)-9-methyl-5-oxodecahydropyrrolo[1,2-a]azocin-6-yl)carbamoyl)benzo[b]thiophen-5-yl)methyl)phosphonic acid]
1000 to 10000 nM | 0.3 to 3 µM | CC(C)n1ccc(N2C(=O)N(C(=O)[C@@H]3CC[C@@H]4CCCC[C@H](NC(=O)c5cc6cc(C(F)P(=O)(O)O)ccc6s5)C(=O)N43)C3(CC3)C2=O)cc1=O (stereo partly drawn) [Compound 586, (fluoro(2-(((3S,6S,10aS)-3-(6-(1-isopropyl-2-oxo-1,2-dihydropyridin-4-yl)-5,7-dioxo-4,6-diazaspiro[2.4]heptane-4-carbonyl)-5-oxodecahydropyrrolo[1,2-a]azocin-6-yl)carbamoyl)benzo[b]thiophen-5-yl)methyl)phosphonic acid]
1000 to 10000 nM | 3 to 30 µM | O=C(N[C@H]1CCCC[C@H]2CC[C@@H](C(=O)N3CCC(c4n[nH]cc4F)CC3)N2C1=O)c1cc2cc(C(F)P(=O)(O)O)ccc2s1 (stereo partly drawn) [Compound 587, (fluoro(2-(((3S,6S,10aS)-3-(4-(4-fluoro-1H-pyrazol-3-yl)piperidine-1-carbonyl)-5-oxodecahydropyrrolo[1,2-a]azocin-6-yl)carbamoyl)benzo[b]thiophen-5-yl)methyl)phosphonic acid]
1000 to 10000 nM | 3 to 30 µM | O=C(N[C@H]1CCCC[C@H]2CC[C@@H](C(=O)N3CCC(c4ncncc4F)CC3)N2C1=O)c1cc2cc(C(F)P(=O)(O)O)ccc2s1 (stereo partly drawn) [Compound 588, (fluoro(2-(((3S,6S,10aS)-3-(4-(5-fluoropyrimidin-4-yl)piperidine-1-carbonyl)-5-oxodecahydropyrrolo[1,2-a]azocin-6-yl)carbamoyl)benzo[b]thiophen-5-yl)methyl)phosphonic acid]
